For 30 compounds, inhibition results are on record in ChEMBL document CHEMBL3301458, “MMV Malaria Box hERG screening”.

The target in data set [1] is T1, hERG (Kv11.1, KCNH2) (Homo sapiens, UniProt Q12809). In words: in vitro.
Description: MMV: Malaria Box compounds were tested for inhibition of the human ether a go-go related gene (hERG), Kv11.1 channel, using IonWorks 384-well patch clamp electrophysiology at 1.1uM (3 independent assay plates up to 12 cells per concentration).
Data set [2] deals with T1, hERG (Kv11.1, KCNH2). In words: in vitro. The source holds these as a separate data set.
Description: MMV: Malaria Box compounds were tested for inhibition of the human ether a go-go related gene (hERG), Kv11.1 channel, using IonWorks 384-well patch clamp electrophysiology at 11.1uM (3 independent assay plates up to 12 cells per concentration).

Activity calls are given as the source filed them. How the calls were made is not given here.

T1 sequence (Q12809 whole entry): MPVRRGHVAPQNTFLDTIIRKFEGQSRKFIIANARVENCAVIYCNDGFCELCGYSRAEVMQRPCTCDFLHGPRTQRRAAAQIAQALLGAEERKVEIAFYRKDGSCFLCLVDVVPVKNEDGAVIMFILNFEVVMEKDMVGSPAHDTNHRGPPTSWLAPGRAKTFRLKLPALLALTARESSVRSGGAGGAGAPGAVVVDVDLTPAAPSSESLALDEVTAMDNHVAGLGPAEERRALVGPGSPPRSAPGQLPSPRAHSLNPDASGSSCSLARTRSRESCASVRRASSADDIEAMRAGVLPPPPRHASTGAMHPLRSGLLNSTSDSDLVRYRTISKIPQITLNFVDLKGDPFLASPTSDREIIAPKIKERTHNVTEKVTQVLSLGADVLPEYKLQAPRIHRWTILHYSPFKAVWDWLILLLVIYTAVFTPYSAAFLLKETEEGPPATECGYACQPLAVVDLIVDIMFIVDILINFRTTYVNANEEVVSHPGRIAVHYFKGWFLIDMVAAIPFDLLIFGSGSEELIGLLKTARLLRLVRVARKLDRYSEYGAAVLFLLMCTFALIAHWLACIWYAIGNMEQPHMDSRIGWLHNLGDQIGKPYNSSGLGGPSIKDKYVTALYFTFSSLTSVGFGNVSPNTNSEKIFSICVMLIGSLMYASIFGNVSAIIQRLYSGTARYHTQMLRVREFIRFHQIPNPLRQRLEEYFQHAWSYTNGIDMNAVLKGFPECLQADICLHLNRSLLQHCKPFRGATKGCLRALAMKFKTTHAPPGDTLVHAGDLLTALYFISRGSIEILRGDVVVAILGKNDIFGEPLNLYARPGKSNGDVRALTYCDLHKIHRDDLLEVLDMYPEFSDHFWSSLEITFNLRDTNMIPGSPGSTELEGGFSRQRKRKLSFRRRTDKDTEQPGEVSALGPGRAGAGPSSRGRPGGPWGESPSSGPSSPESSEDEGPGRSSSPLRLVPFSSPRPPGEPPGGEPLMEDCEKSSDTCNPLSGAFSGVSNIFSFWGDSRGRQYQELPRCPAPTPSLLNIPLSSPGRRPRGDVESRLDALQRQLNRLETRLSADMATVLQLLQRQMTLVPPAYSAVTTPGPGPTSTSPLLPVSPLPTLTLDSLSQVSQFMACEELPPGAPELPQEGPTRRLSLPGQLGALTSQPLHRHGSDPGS

The inhibition is the change of the read-out against control, counted positive when it falls. Regarding `O=c1c2c([nH]c3ccccc13)CCCC2`, in data set [1], the inhibition at 1.1 µM worked out at 4%. Moreover, the inhibition at 11.1 µM in data set [2] is 6% (inactive).

As for `Cc1ccccc1OCCSc1nc2ccc(NC(=O)c3cccs3)cc2s1`, the inhibition at 1.1 µM in data set [1] was determined as 12%. Also, the inhibition at 11.1 µM in data set [2] is 24% (inactive).

As to `O=C(NCc1ccco1)C1CCN(S(=O)(=O)c2ccc(Cl)cc2)CC1`, the inhibition at 1.1 µM in data set [1] worked out at 11%. Also, the inhibition at 11.1 µM in data set [2] worked out at 38%.

In the case of `COc1ccc(-c2cc3c(nn2)-c2ccccc2C3=O)cc1`, the inhibition at 1.1 µM in data set [1] is -9%. Besides, the inhibition at 11.1 µM in data set [2] was -7% (inactive).

Regarding `CN(C)CCCNCc1ccc(-c2ccc(F)c(Cl)c2)o1`, the inhibition at 1.1 µM in data set [1] turned out to be 3%. Also, the inhibition at 11.1 µM in data set [2] came to 48%.

As for `COc1ccc(Nc2nc(NCc3ccccc3)c3ccccc3n2)cc1`, the inhibition at 1.1 µM in data set [1] was determined as 0%. Also, the inhibition at 11.1 µM in data set [2] is 53% (active).

Take `COc1cccc(C2(C)Nc3ccccc3-c3nc4ccccc4n32)c1` (stereo not given): in data set [1], the inhibition at 1.1 µM is 10%. The inhibition at 11.1 µM in data set [2] was 18% (inactive).

For `Cc1ccc(F)cc1NC(=O)c1cc(Cl)ccc1Nc1ccccc1`, the inhibition at 1.1 µM in data set [1] stood at 5%. In data set [2], the inhibition at 11.1 µM was 12% (inactive).

`CCCc1c(C)nc2ccccc2c1O`: in data set [1], the inhibition at 1.1 µM was -17%. Besides, the inhibition at 11.1 µM in data set [2] was 7% (inactive).

Turning to `CCCCCCOC(=O)C1=C(C)NC(=O)NC1c1ccccc1F` (stereo not given), the inhibition at 1.1 µM in data set [1] is -2%. Also, in data set [2], the inhibition at 11.1 µM was 1% (inactive).

`CC1CCCCN1CCCNC(=O)c1ccc2c(c1)sc1nc(-c3ccc(F)cc3)cn12` (stereo not given): in data set [1], the inhibition at 1.1 µM came to 64%. For the same compound, the inhibition at 11.1 µM in data set [2] was found to be 81%.

As to `CCCc1c(CC)c(=N)c2ccccc2n1C`, the inhibition at 1.1 µM in data set [1] was found to be 0%. The inhibition at 11.1 µM in data set [2] came out at 26%.

With `CCCN(CCC)CC(O)COc1ccccc1C(=O)Nc1ccccc1` (stereo not given), in data set [1], the inhibition at 1.1 µM is 57%. Further, in data set [2], the inhibition at 11.1 µM was 98%.

With `CC(C)(C)c1ccc(C2CC3=Nc4ccccc4N(C(=O)c4ccccc4Cl)C(c4ccc(F)cc4)C3=C(O)C2)cc1` (stereo not given), the inhibition at 1.1 µM in data set [1] was found to be 30%. Besides, the inhibition at 11.1 µM in data set [2] is 88% (active).

As for `COCCN(C(=O)Cc1cccs1)C(C(=O)NCc1ccc(OC)cc1)c1ccc(C(C)C)cc1` (stereo not given), the inhibition at 1.1 µM in data set [1] was determined as 11%. Also, the inhibition at 11.1 µM in data set [2] was 52% (active).

On to `CC1CCN(Cc2ccc(NC(=O)c3cc4ccc5cccnc5c4[nH]3)cc2)CC1`, for which the inhibition at 1.1 µM in data set [1] came to 64%. The inhibition at 11.1 µM in data set [2] is 101%.

Take `Cc1cc(C=C2SC(=Nc3ccccc3)N(C3CCCC3)C2=O)c(C)n1-c1ccc(Cl)cc1`: in data set [1], the inhibition at 1.1 µM is 5%. The inhibition at 11.1 µM in data set [2] was -5% (inactive).

Turning to `Cc1ccc(N2C3c4ccccc4N(S(=O)(=O)c4ccc(C)cc4)C2c2ccccc2N3S(=O)(=O)c2ccc(C)cc2)cc1`, the inhibition at 1.1 µM in data set [1] was determined as 18%. The inhibition at 11.1 µM in data set [2] is 18% (inactive).

Turning to `COc1ccc(C2C(C(=O)Nc3cccc(OC)c3)c3ccccc3C(=O)N2C2CCCCC2)cc1` (stereo not given), the inhibition at 1.1 µM in data set [1] was found to be 4%. Besides, in data set [2], the inhibition at 11.1 µM was 70% (active).

On to `COc1ccc(C(=O)C(CCC(CNC(C)(C)C)C(=O)c2ccc(OC)cc2)CNC(C)(C)C)cc1` (stereo not given), for which the inhibition at 1.1 µM in data set [1] worked out at 9%. Moreover, the inhibition at 11.1 µM in data set [2] was determined as 33%.

Turning to `CCC(c1ccccc1)c1nn2c(-c3cccs3)nnc2s1` (stereo not given), in data set [1], the inhibition at 1.1 µM stood at 8%. Also, the inhibition at 11.1 µM in data set [2] amounted to 42%.

Regarding `CCCCNc1nc(NC(C)(C)C)nc(NC(C)(C)C)n1`, in data set [1], the inhibition at 1.1 µM is -1%. In addition, the inhibition at 11.1 µM in data set [2] is 1% (inactive).

With `CCOC(=O)c1c(NC(=O)c2ccccc2)sc2c(O)c(CN(CC)CC)ccc12`, the inhibition at 1.1 µM in data set [1] was 4%. The inhibition at 11.1 µM in data set [2] was 23% (inactive).

In the case of `CCCOCc1cc(CN2CCN(c3cccc(Cl)c3)CC2)c(O)c2ncccc12`, the inhibition at 1.1 µM in data set [1] was determined as 3%. In addition, the inhibition at 11.1 µM in data set [2] is 106% (active).

For the compound `CCCCc1c(C)nc2c(OC)cccc2c1O`, the inhibition at 1.1 µM in data set [1] is -9%. Besides, the inhibition at 11.1 µM in data set [2] was 4% (inactive).

In the case of `Nc1ccn([C@@H]2O[C@H](CO)[C@@H](O)[C@H]2O)c(=O)n1` [CYTIDINE], the inhibition at 1.1 µM in data set [1] worked out at 0%. Besides, the inhibition at 11.1 µM in data set [2] was 8% (inactive).

Regarding `COc1ccc(C2c3ccc4ccccc4c3Oc3ncn(CCCn4ccnc4)c(=N)c32)cc1OC` (stereo not given), the inhibition at 1.1 µM in data set [1] came out at 23%. The inhibition at 11.1 µM in data set [2] stood at 25%.

On to `CC1CCN(Cc2c(O)ccc3cc(-c4nc5ccccc5s4)c(=O)oc23)CC1`, for which the inhibition at 1.1 µM in data set [1] was -3%. Further, the inhibition at 11.1 µM in data set [2] is 10% (inactive).

Regarding `COc1ccc(-c2nc(N3CCN(C(=O)C4CCCCC4)CC3)c3c4c(sc3n2)CCCC4)cc1`, the inhibition at 1.1 µM in data set [1] is 7%. In data set [2], the inhibition at 11.1 µM is 17% (inactive).

Take `O=C(CCc1ccccc1)c1ccccc1OCC(O)CN1CCCCC1` (stereo not given): the inhibition at 1.1 µM in data set [1] stood at 1%. Besides, in data set [2], the inhibition at 11.1 µM is 17% (inactive).
